Measured values: patent US6869939B2, “Formulations containing amiodarone and sulfoalkyl ether cyclodextrin” (CyDex, Inc., priority 2002, dated 2005)
Where two headings read alike, the source gives them in different places.

Key:
[1] = room temperature (not heated), pH 4.5
Excerpt: The following table can be used to predict the ratio of components required to achieve the indicated amiodarone concentrations at room temperature (not heated) and pH 4.5.

[2] = pH 4.5
Excerpt: The mixture can optionally further comprise a buffer or other charged species wherein the concentration of the buffer or other charged species is less than about 0.5M.

[3] = SBE7-β-CD 0.5% w/v (0.00231 Molar)
[4] = SBE7-β-CD 1% w/v (0.00462 Molar)
[5] = SBE7-β-CD 3% w/v (0.0139 Molar)
[6] = SBE7-β-CD 5% w/v (0.0231 Molar)
[7] = SBE7-β-CD 30% w/v (0.139 Molar)
[8] = SBE7-β-CD 50% w/v (0.231 Molar)
[9] = SBE7-β-CD 80% w/v (0.370 Molar), by extrapolation of phase solubility data

Compound	Amiodarone (Ami) [1, 3] [mg/mL]	Amiodarone (Ami) Molar [1, 3] [Molar]	Amiodarone (Ami) [1, 4] [mg/mL]	Amiodarone (Ami) Molar [1, 4] [Molar]	Amiodarone (Ami) [1, 5] [mg/mL]	Amiodarone (Ami) Molar [1, 5] [Molar]	Amiodarone (Ami) [1, 6] [mg/mL]	Amiodarone (Ami) Molar [1, 6] [Molar]	Amiodarone (Ami) [1, 7] [mg/mL]	Amiodarone (Ami) Molar [1, 7] [Molar]	Amiodarone (Ami) [1, 8] [mg/mL]	Amiodarone (Ami) Molar [1, 8] [Molar]	Amiodarone (Ami) [1, 9] [mg/mL]	Amiodarone (Ami) Molar [1, 9] [Molar]	times SBE7-β-CD is more effective at solubilizing amiodarone than the named cyclodextrin [2] [times]
CCCCc1oc2ccccc2c1C(=O)c1cc(I)c(OCCN(CC)CC)c(I)c1.Cl [Amiodarone HCl, (2-butyl-3-benzofuranyl)[4-[2-(diethylamino)ethoxy]-3,5-diiodophenyl]methanone hydrochloride]	0.482	0.000708	3.0	0.0045	20.6	0.03019	28.8	0.0423	53.8	0.079	72.2	0.106	100.8	0.148	–
dimethyl-beta cyclodextrin [Methyl (DS˜14)]	–	–	–	–	–	–	–	–	–	–	–	–	–	–	1.7
